Values of other authors, collected in patent publication US20200306172A1, “DEPIGMENTING DERMATOLOGICAL AND COSMETIC COMPOSITIONS” (NUNII LABORATOIRE, priority 2017, published 2020).
Read-outs that look alike come from different tables or passages of the source.

What was measured:
[1] = pH 4 to pH 6
[2] = powder raw material

In the case of CCOC1=C(O)C(=O)O[C@@H]1[C@@H](O)CO [3-O-ethyl-L-ascorbic acid], the stability [1] is listed as “more stable than ascorbic acid and its other derivatives” and the solubility [2] is listed as “soluble in water and alcohol”.
In the case of NC(=O)c1cccnc1 [Niacinamide], the solubility [2] is listed as “readily soluble in water, alcohol or glycerol”.
For Oc1ccc(/C=C/c2cc(O)cc(O)c2)cc1 [Trans-resveratrol], the solubility [2] is given as “soluble in polyethylene glycols and propylene glycols”.
For O=c1cc(CO)occ1O [kojic acid], the depigmenting activity (kojic acid at 1%) is given as “no depigmenting activity” and the depigmenting activity (kojic acid at 4% dose) is given as “shows a depigmenting effect”.
In the case of OCC1O[C@H](Oc2ccc(O)cc2)C(O)C(O)[C@@H]1O (stereo partly drawn) [α-arbutin], the solubility [2] is given as “readily soluble in water”.
